Where a SMILES comes first, the peptide text is derived from it. Bridges are numbered along the chain shown (N, C = ends). [ ]: non-standard residue; d: D form. The star is where a group is joined. DOTA = O=C(O)CN1CCN(CC(=O)O)CCN(CC(=O)*)CCN(CC(=O)O)CC1
Assays:
hSST1R = target: T1, hSST1R (Homo sapiens, UniProt P30872); assay: Receptor autoradiography competition binding vs [125I]I-[LTT]SS28
T1 construct: expressed in transfected cells; host or cells: CHO cells, gift of Drs; T. Reisine and G. Singh
Protocol: (§1) Cell membrane pellets were prepared from CHO-hSST1R cells, CCL39-hSST2R, CCL39-hSST3R, and CCL39-hSST4R cells, and HEK293-hSST2R cells and stored at −80 °C. Receptor autoradiography was performed on 20-μm-thick cryostat (Microm HM 500, Walldorf, Germany) sections of the membrane pellets mounted on microscope slides, and then stored at −20 °C, as previously described. […] The incubated sections were washed twice for 5 min in cold 170 mmol/L Tris-HCl (pH 8.2) containing 0.25% BSA. After a brief dip in 170 mmol/L Tris-HCl (pH 8.2), the sections were dried quickly and exposed for 1 week to Kodak BioMax MR film (Rochester, NY, USA). IC50 values were calculated after quantification of the data using a computer-assisted image processing system as described previously. Tissue standards (Autoradiographic [^125I] and/or [^14C] microscales, GE Healthcare; Little Chalfont, UK) that contain known amounts of isotope, cross-calibrated to tissue-equivalent ligand concentrations, were used for quantification.

hSST2R [1] = target: T2, hSST2R (Homo sapiens, UniProt P30874); assay: as above
T2 construct: expressed in transfected cells
Protocol: as §1

hSST3R = target: T3, hSST3R (Homo sapiens, UniProt P32745); assay: as above
T3 construct: expressed in transfected cells; host or cells: CCL39 cells, gift of Dr. D. Hoyer (Novartis Pharma)
Protocol: as §1

hSST5R = target: T4, hSST5R (Homo sapiens, UniProt P35346); assay: as above
T4 construct: expressed in transfected cells

hSST2R [2] = target: T2, hSST2R; assay: Immunofluorescence microscopy-based internalization assay in HEK293-hSST2R cells; format: cell-based; conditions: for ligand-induced hSST2R internalization (agonism): 30 min at 37 °C
Protocol: Figure 3 Agonist stimulated hSST2R-internalization in HEK293-hSST2R cells determined by immunofluorescence microscopy.
An immunofluorescence microscopy-based internalization assay for hSST2R was performed in HEK293-hSST2R cells, grown on poly-DLys (20 μg/mL) (Sigma-Aldrich, St. Louis, MO, USA) coated 35-mm four-well plates (Cellstar, Greiner Bio-One GmbH, Frickenhausen, Germany). […] HEK293-hSST2R cells treated with vehicle alone were used as a negative control. The cells were then rinsed twice with PS (100 mM phosphate buffer containing 0.15 M sucrose), fixed and permeabilized for 7 min with cold methanol (−20 °C), rinsed twice with PS, and then blocked for 60 min at room temperature with PS containing 0.1% BSA. Next, cells were incubated for 60 min at room temperature with the hSST2R-specific primary antibody R2-88 (provided by Dr. A. Schönbrunn, Houston, TX, USA) diluted 1:1000 in PS and washed 3 × 5 min with PS containing 0.1% BSA. The cells were incubated for 60 min at room temperature in the dark with the secondary antibody Alexa Fluor 488 goat anti-rabbit IgG (H+ L) (Molecular Probes, Inc., Eugene, OR, USA) diluted in PS (1:600), washed 3 × 5 min with PS containing 0.1% BSA, embedded with PS/glycerol 1:1, and covered with a glass cover slip. The cells were imaged using a Leica DM RB immunofluorescence microscope (Leica, Deerfield, IL, USA) and an Olympus DP10 camera (Olympus Corporation, Shinjuku, Tokyo, Japan).

[3] = mice, blood collected 5 min pi, radio-HPLC
Protocol: At 5 min pi blood (~1mL) was collected from the heart of mice in a prechilled insulin syringe and swiftly placed in an ice-cold polypropylene tube containing EDTA on ice. Blood samples were centrifuged at 2000× g at 4 °C for 10 min. […] The mixture was centrifuged for 10 min at 15,000× g at 4 °C. […] An RP18 Symmetry Shield cartridge column (5 μm, 3.9 mm × 20 mm, Waters, Vienna, Austria) was eluted at a 1 mL/min flow rate with the following gradient: 100%A/0%B to 60%A/40%B in 40 min, whereby A = 0.1% aqueous TFA and B = MeCN (system 3).

T1 sequence (P30872 whole entry): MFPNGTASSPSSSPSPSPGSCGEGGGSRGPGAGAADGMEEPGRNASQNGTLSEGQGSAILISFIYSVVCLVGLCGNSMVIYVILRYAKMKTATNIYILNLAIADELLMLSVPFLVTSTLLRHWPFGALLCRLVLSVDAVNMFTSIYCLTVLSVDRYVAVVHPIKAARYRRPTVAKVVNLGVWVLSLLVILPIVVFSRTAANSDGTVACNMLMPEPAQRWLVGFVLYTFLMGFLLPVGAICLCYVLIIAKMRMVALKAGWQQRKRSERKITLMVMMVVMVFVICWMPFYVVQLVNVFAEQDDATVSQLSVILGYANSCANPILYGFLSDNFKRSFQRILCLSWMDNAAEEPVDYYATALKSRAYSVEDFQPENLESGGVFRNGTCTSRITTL
T3 sequence (P32745 whole entry): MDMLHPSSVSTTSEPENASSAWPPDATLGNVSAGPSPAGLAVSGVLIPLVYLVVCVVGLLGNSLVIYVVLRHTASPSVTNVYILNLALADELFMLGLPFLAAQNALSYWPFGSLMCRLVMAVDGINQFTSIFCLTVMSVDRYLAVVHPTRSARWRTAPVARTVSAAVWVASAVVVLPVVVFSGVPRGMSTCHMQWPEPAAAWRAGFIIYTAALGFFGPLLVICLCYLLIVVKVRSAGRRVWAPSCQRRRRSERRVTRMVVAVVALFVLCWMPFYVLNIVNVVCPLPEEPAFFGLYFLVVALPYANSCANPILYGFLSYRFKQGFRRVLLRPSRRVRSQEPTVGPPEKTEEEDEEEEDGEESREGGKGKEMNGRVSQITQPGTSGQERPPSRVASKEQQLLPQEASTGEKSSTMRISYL
T2 sequence (P30874 whole entry): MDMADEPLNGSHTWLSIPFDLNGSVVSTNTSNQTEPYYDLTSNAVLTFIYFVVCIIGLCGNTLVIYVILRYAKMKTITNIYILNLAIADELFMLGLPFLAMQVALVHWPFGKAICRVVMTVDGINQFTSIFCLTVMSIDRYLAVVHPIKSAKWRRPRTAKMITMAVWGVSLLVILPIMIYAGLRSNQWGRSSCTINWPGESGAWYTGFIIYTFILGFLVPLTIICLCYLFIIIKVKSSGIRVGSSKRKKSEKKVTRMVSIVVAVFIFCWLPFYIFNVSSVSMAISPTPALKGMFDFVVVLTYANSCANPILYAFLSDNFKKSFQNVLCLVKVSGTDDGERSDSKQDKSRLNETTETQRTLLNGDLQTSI
T4 sequence (P35346 whole entry): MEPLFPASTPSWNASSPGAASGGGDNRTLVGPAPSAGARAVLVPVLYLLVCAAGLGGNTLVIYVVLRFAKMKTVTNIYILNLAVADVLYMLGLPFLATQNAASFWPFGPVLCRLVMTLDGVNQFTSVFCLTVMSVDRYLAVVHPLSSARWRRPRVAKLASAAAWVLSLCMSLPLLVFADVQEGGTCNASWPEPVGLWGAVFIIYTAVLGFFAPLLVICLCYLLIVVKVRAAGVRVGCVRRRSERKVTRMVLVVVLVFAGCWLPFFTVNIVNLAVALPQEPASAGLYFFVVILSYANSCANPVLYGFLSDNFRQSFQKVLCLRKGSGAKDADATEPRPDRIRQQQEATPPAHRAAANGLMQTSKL

Molecule | IC50 (hSST1R) | IC50 (hSST2R [1]) | IC50 (hSST3R) | IC50 (hSST5R) | ligand-induced hSST2R internalization (agonism) (hSST2R [2]; 1 µM) | prevention of SS14-induced hSST2R internalization (antagonism) (hSST2R [2]; 10 µM test peptide + 10 nM SS14, 30 min at 37 °C) | ligand-induced hSST2R internalization (agonism) (hSST2R [2]; 10 µM) | drop in binding affinity for hSST1R compared with native hormone (hSST1R; vs SS14) | lower affinity for hSST2R compared with AT2S (hSST2R [1]; vs AT2S) | drop in binding affinity for hSST2R compared with native hormone (hSST2R [1]; vs SS14) | lower affinity for hSST3R compared with AT2S (hSST3R; vs AT2S) | drop in binding affinity for hSST3R compared with native hormone (hSST3R; vs SS14) | lower affinity for hSST5R compared with AT2S (hSST5R; vs AT2S) | drop in binding affinity for hSST5R compared with native hormone (hSST5R; vs SS14) | % intact radioligand in peripheral blood [3]
C[C@H](NC(=O)CN1CCN(CC(=O)O)CCN(CC(=O)O)CCN(CC(=O)O)CC1)C(=O)NCC(=O)N[C@H]1CSSC[C@@H](C(=O)O)NC(=O)[C@H](CO)NC(=O)[C@H]([C@@H](C)O)NC(=O)[C@@H]2CSSC[C@H](NC(=O)[C@H](CC(N)=O)NC(=O)[C@H](CCCCN)NC1=O)C(=O)N[C@@H](Cc1ccccc1)C(=O)N[C@H](Cc1c[nH]c3ccccc13)C(=O)N[C@@H](CCCCN)C(=O)N[C@@H]([C@@H](C)O)C(=O)N2 [AT5S, DOTA-Ala^1-Gly^2-c[Cys^3-Lys^4-Asn^5-c[Cys^6-Phe^7-DTrp^8-Lys^9-Thr^10-Cys^11]-Thr^12-Ser^13-Cys^14]] ({DOTA}-AGCKNCF[dW]KTCTSC-OH; disulfide 3-14, 6-11) | > 1 µM | 0.616 ± 0.148 µM | > 1 µM | > 1 µM | failed to trigger the hSST2R internalization | failed to prevent the hSST2R internalization | failed to trigger the hSST2R internalization |  |  |  |  |  |  |  | 
C[C@H](NC(=O)CN1CCN(CC(=O)O)CCN(CC(=O)O)CCN(CC(=O)O)CC1)C(=O)NCC(=O)N[C@H]1CSSC[C@@H](C(=O)O)NC(=O)[C@H](CO)NC(=O)[C@@H]2CSSC[C@H](NC(=O)[C@H](CCCCN)NC1=O)C(=O)N[C@@H](Cc1ccccc1)C(=O)N[C@@H](Cc1ccccc1)C(=O)N[C@H](Cc1c[nH]c3ccccc13)C(=O)N[C@@H](CCCCN)C(=O)N[C@@H]([C@@H](C)O)C(=O)N[C@@H](Cc1ccccc1)C(=O)N2 [AT6S, DOTA-Ala^1-Gly^2-c[Cys^3-Lys^4-c[Cys^5-Phe^6-Phe^7-DTrp^8-Lys^9-Thr^10-Phe^11-Cys^12]-Ser^13-Cys^14]] ({DOTA}-AGCKCFF[dW]KTFCSC-OH; disulfide 3-14, 5-12) | 0.012 ± 0.0033 µM | 0.0063 ± 0.0006 µM | 0.0097 ± 0.0036 µM | 0.026 ± 0.007 µM | behaved as a potent agonist |  |  | < 6 fold | < 4 fold | 9 fold | ≈ 4 fold | ≈ 3 fold | < 2 fold | < 6 fold | 
C[C@H](NC(=O)CN1CCN(CC(=O)O)CCN(CC(=O)O)CCN(CC(=O)O)CC1)C(=O)NCC(=O)N[C@H]1CSSC[C@@H](C(=O)O)NC(=O)[C@H](CO)NC(=O)[C@H]([C@@H](C)O)NC(=O)[C@@H]2CSSC[C@H](NC(=O)[C@H](CC(N)=O)NC(=O)[C@H](CCCCN)NC1=O)C(=O)N[C@@H](Cc1ccccc1)C(=O)N[C@H](Cc1c[nH]c3ccccc13)C(=O)N[C@@H](CCCCN)C(=O)N[C@@H]([C@@H](C)O)C(=O)N2 [[^111In]In-AT5S, metal not drawn] ({DOTA}-AGCKNCF[dW]KTCTSC-OH; disulfide 3-14, 6-11) |  |  |  |  |  |  |  |  |  |  |  |  |  |  | > 96%
DOTA-Ala^1-Gly^2-c[Cys^3-Lys^4-Asn^5-Phe^6-Phe^7-Trp^8-Lys^9-Thr^10-Phe^11-Thr^12-Ser^13-Cys^14-OH] [AT1S, reference compound] |  |  |  |  | clearly able to trigger the internalization of hSST2R |  |  |  |  |  |  |  |  |  | 

— paper PMC10856354 (International Journal of Molecular Sciences, 2024)
